Like-named read-outs stand apart in the source and are kept apart here.
Legend:
Human UII receptors = target: T1, Human UII receptors (Homo sapiens, UniProt Q9UKP6); experiment: Human radioligand binding assay, (125I)-U-II on HSMM
T1 construct: host or cells: Human Skeletal Muscle Myoblasts (HSMM), intact adherent cells
T1 sequence (Q9UKP6 1-389): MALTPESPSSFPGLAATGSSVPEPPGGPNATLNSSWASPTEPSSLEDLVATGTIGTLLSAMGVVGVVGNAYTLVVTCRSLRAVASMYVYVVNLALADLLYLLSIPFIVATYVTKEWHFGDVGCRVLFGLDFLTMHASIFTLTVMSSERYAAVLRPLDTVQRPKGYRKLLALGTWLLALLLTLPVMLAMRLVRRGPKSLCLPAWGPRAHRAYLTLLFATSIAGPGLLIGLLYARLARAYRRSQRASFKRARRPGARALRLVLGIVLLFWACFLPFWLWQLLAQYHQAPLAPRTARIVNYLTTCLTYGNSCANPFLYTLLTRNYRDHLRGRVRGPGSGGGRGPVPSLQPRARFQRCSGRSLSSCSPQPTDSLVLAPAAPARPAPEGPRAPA
Procedure: Human Skeletal Muscle Myoblasts (HSMM) were obtained from Cambrex, and were cultured according to manufacturer's instruction. Cell viability was examined by trypan blue exclusion. Cells at less than 4 passages were used in all studies. […] The binding medium used was Dulbecco's modified Eagle's medium (DMEM) containing 2 mg/ml BSA and 25 mM HEPES (pH 7.4). […] The cells were washed 4× with the binding medium and solubilized in 1% SDS and 0.5 N NaOH. Radioactivity was quantified by gamma counting.

[1] = target: T2, rat GPR14 (U-II receptor) (Rattus norvegicus, UniProt P49684); experiment: Calcium flux assay (FLIPR); assay type: cell-based; conditions: Inhibition of acetyl-cyclic[Cys-Phe-Trp-Lys-(2-Nal)-Cys]-NH2 (1 nM) induced Ca2+ mobilization (FLIPR) in CHO cells transfected with rat UII receptor; 5 min incubation
T2 construct: expressed in transfected cells
T2 sequence (P49684 1-386): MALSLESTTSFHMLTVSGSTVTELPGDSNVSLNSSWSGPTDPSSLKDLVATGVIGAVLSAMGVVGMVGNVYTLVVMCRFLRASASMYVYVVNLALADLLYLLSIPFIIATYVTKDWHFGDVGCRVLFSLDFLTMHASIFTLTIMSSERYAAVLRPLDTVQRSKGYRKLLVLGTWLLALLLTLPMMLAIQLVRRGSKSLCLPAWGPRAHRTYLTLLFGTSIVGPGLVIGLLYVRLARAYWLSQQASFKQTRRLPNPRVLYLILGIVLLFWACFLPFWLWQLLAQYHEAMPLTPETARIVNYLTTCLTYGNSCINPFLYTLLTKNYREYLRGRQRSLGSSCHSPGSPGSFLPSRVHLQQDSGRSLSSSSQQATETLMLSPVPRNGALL
Source text: To derive these cells, the complete coding sequence of rat […] was amplified by nested PCR from rat heart marathon-Ready cDNA. […] The PCR products were cloned into pcDNA3 (Invitrogen) digested with EcoR I and Xba I. Clones containing rat U-II receptor were verified by complete sequencing of the U-II receptor insert to ensure a lack of PCR-introduced errors. The constructed vector was transfected into CHO cells by using lipofectamine (GIBCO BRL). CHO cells with high expression of rat U-II receptor were selected and established as stable cell lines by using G418. CHO cells were seeded at 25,000 cells per well into 96-well, black-wall, clear-bottom microtiter plates 24 hrs before assay. Cells in culture media (DMEM/F12 containing 15 mM HEPES, L-glutamine, pyridoxine hydrochloride; 10% fetal bovine serum; 1 mg/mL G418 sulfate; antibiotic-antimycotic; pH 7.4) were loaded with proprietary dye, from the FLIPR Calcium Assay Kit (Molecular Devices), prepared in assay buffer (Hanks Balanced Salts Solution, 20 mM HEPES, 0.1% BSA, 2.5 mM probenecid, pH 7.4), and incubated for 1 hr at 37° C. Calcium mobilization determinations were performed at room temperature (23° C.).

[2] = 0.150 nM (125I)-U-II, intact Human Skeletal Muscle Myoblasts, 3 hrs, 25° C., read-out: Ki

O=C(NCCc1ccccc1)c1ccccc1C1CCN(CCN2C(=O)COc3ccccc32)CC1 [Cpd 1, 2-{1-[2-(3-oxo-2,3-dihydro-benzo[1,4]oxazin-4-yl)-ethyl]-piperidin-4-yl}-N-phenethyl-benzamide]
Ki (Human UII receptors; [2]): 2900 nM | IC50 [1]: 7500 nM

O=C(NCCCCCNC(=O)c1cc(Cl)ccc1C1CCN(CCN2C(=O)COc3ccccc32)CC1)NCCc1ccccc1 [Cpd 82, 5-chloro-2-{1-[2-(3-oxo-2,3-dihydro-benzo[1,4]oxazin-4-yl)-ethyl]-piperidin-4-yl}-N-[5-(3-phenethyl-ureido)-pentyl]-benzamide]
Ki (Human UII receptors; [2]): 120 nM | IC50 [1]: 170 nM

O=C(NCCNC(=O)c1ccccc1C1CCN(CCN2C(=O)COc3ccccc32)CC1)Nc1cccc2ccccc12 [Cpd 55, N-[2-(3-naphthalen-1-yl-ureido)-ethyl]-2-{1-[2-(3-oxo-2,3-dihydro-benzo[1,4]oxazin-4-yl)-ethyl]-piperidin-4-yl}-benzamide]
Ki (Human UII receptors; [2]): 840 nM | IC50 [1]: 2000 nM

O=C(NCCCCCNC(=O)c1cc(Cl)ccc1C1CCN(CCN2C(=O)COc3ccccc32)CC1)OCc1ccccc1 [Cpd 75, [5-(5-chloro-2-{1-[2-(3-oxo-2,3-dihydro-benzo[1,4]oxazin-4-yl)-ethyl]-piperidin-4-yl}-benzoylamino)-pentyl]-carbamic acid benzyl ester]
Ki (Human UII receptors; [2]): 34 nM | IC50 [1]: 40 nM

CC(C)(C)OC(=O)NCCCCCNC(=O)c1cc(Cl)ccc1C1CCN(CCN2C(=O)CCc3ccccc32)CC1 [Cpd 83, [5-(5-chloro-2-{1-[2-(2-oxo-3,4-dihydro-2H-quinolin-1-yl)-ethyl]-piperidin-4-yl}-benzoylamino)-pentyl]-carbamic acid tert-butyl ester]
Ki (Human UII receptors; [2]): 220 nM | IC50 [1]: 360 nM

CC(C)(C)OC(=O)NCCOCCNC(=O)c1cc(Cl)ccc1C1CCN(CCN2C(=O)COc3ccccc32)CC1 [Cpd 79, {2-[2-(5-chloro-2-{1-[2-(3-oxo-2,3-dihydro-benzo[1,4]oxazin-4-yl)-ethyl]-piperidin-4-yl}-benzoylamino)-ethoxy]-ethyl}-carbamic acid tert-butyl ester]
Ki (Human UII receptors): 53 nM | IC50 [1]: 37 nM

O=C(NCC1CCN(C(=O)NCc2ccccc2)CC1)c1cc(Cl)ccc1C1CCN(CCN2C(=O)COc3ccccc32)CC1 [Cpd 67, 4-[(5-chloro-2-{1-[2-(3-oxo-2,3-dihydro-benzo[1,4]oxazin-4-yl)-ethyl]-piperidin-4-yl}-benzoylamino)-methyl]-piperidine-1-carboxylic acid benzylamide]
Ki (Human UII receptors; [2]): 30 nM | IC50 [1]: 210 nM

CC(C)(C)OC(=O)N1CCN(CCNC(=O)c2cc(Cl)ccc2C2CCN(CCN3C(=O)COc4ccccc43)CC2)CC1 [Cpd 66, 4-[2-(5-chloro-2-{1-[2-(3-oxo-2,3-dihydro-benzo[1,4]oxazin-4-yl)-ethyl]-piperidin-4-yl}-benzoylamino)-ethyl]-piperazine-1-carboxylic acid tert-butyl ester]
Ki (Human UII receptors; [2]): 57 nM | IC50 [1]: 15 nM

O=C(NCCCc1ccccc1)c1ccccc1C1CCN(CCN2C(=O)COc3ccccc32)CC1 [Cpd 3]
Ki (Human UII receptors; [2]): 330 nM | IC50 [1]: 4200 nM

CC(CN1C(=O)COc2ccccc21)N1CCC(c2ccc(Cl)cc2C(=O)NCC2CCN(S(=O)(=O)Cc3ccccc3)CC2)CC1 (centres unmarked) [Cpd 84, 5-chloro-2-{1-[1-methyl-2-(3-oxo-2,3-dihydro-benzo[1,4]oxazin-4-yl)-ethyl]-piperidin-4-yl}-N-(1-phenylmethanesulfonyl-piperidin-4-ylmethyl)-benzamide]
Ki (Human UII receptors; [2]): 210 nM | IC50 [1]: 2000 nM

O=C1COc2ccccc2N1CCN1CCC(c2cccc(Cl)c2)CC1 [Cpd 92, 4-{2-[4-(3-chloro-phenyl)-piperidin-1-yl]-ethyl}-4H-benzo[1,4]oxazin-3-one]
IC50 [1]: 20000 nM

O=C(NCC1CCN(C(=O)c2ccccc2)CC1)c1cc(Cl)ccc1C1CCN(CCN2C(=O)COc3ccccc32)CC1 [Cpd 64, N-(1-benzoyl-piperidin-4-ylmethyl)-5-chloro-2-{1-[2-(3-oxo-2,3-dihydro-benzo[1,4]oxazin-4-yl)-ethyl]-piperidin-4-yl}-benzamide]
IC50 [1]: 520 nM

CC(Cc1ccc(Cl)cc1)NC(=O)c1ccccc1C1CCN(CCN2C(=O)COc3ccccc32)CC1 (centres unmarked) [Cpd 12, N-[2-(4-chloro-phenyl)-1-methyl-ethyl]-2-{1-[2-(3-oxo-2,3-dihydro-benzo[1,4]oxazin-4-yl)-ethyl]-piperidin-4-yl}-benzamide]
IC50 [1]: 10000 nM

Cc1ccc(C2CCN(CCN3C(=O)COc4ccccc43)CC2)cc1 [Cpd 90, 4-[2-(4-p-tolyl-piperidin-1-yl)-ethyl]-4H-benzo[1,4]oxazin-3-one]
IC50 [1]: 15000 nM

CN(CCc1ccccc1)C(=O)C1(c2ccccc2)CCN(CCN2C(=O)COc3ccccc32)CC1 [Cpd 106, 1-[2-(3-oxo-2,3-dihydro-benzo[1,4]oxazin-4-yl)-ethyl]-4-phenyl-piperidine-4-carboxylic acid methyl-phenethyl-amide]
IC50 [1]: 14000 nM

Cc1ccccc1C1CCN(CCN2C(=O)COc3ccccc32)CC1 [Cpd 91, 4-[2-(4-o-tolyl-piperidin-1-yl)-ethyl]-4H-benzo[1,4]oxazin-3-one]
IC50 [1]: 21000 nM

CN(C)C(=O)c1cc(Cl)ccc1C1CCN(CCN2C(=O)COc3ccccc32)CC1 [Cpd 59, 5-chloro-N,N-dimethyl-2-{1-[2-(3-oxo-2,3-dihydro-benzo[1,4]oxazin-4-yl)-ethyl]-piperidin-4-yl}-benzamide]
IC50 [1]: 10000 nM

O=C1COc2ccccc2N1CCN1CCC(C(=O)NCc2ccccc2)(c2ccccc2)CC1 [Cpd 104, 1-[2-(3-oxo-2,3-dihydro-benzo[1,4]oxazin-4-yl)-ethyl]-4-phenyl-piperidine-4-carboxylic acid benzylamide]
IC50 [1]: 26000 nM

O=C(NCc1ccccn1)c1ccccc1C1CCN(CCN2C(=O)COc3ccccc32)CC1 [Cpd 41, 2-{1-[2-(3-oxo-2,3-dihydro-benzo[1,4]oxazin-4-yl)-ethyl]-piperidin-4-yl}-N-pyridin-2-ylmethyl-benzamide]
IC50 [1]: 21000 nM

COc1cccc(CCNC(=O)c2ccccc2C2CCN(CCN3C(=O)COc4ccccc43)CC2)c1 [Cpd 6, N-[2-(3-methoxy-phenyl)-ethyl]-2-{1-[2-(3-oxo-2,3-dihydro-benzo[1,4]oxazin-4-yl)-ethyl]-piperidin-4-yl}-benzamide]
IC50 [1]: 10000 nM

COC(=O)c1ccccc1C1CCN(CCN2C(=O)COc3ccccc32)CC1 [Cpd 93]
IC50 [1]: 32000 nM

O=C(NCCc1ccc(F)cc1)c1ccccc1C1CCN(CCN2C(=O)COc3ccccc32)CC1 [Cpd 16, N-[2-(4-fluoro-phenyl)-ethyl]-2-{1-[2-(3-oxo-2,3-dihydro-benzo[1,4]oxazin-4-yl)-ethyl]-piperidin-4-yl}-benzamide]
IC50 [1]: 8000 nM

COCCNC(=O)c1ccccc1C1CCN(CCN2C(=O)COc3ccccc32)CC1 [Cpd 36, N-(2-methoxy-ethyl)-2-{1-[2-(3-oxo-2,3-dihydro-benzo[1,4]oxazin-4-yl)-ethyl]-piperidin-4-yl}-benzamide]
IC50 [1]: 25000 nM

O=C(NCCc1c[nH]c2ccccc12)c1cc(Cl)ccc1C1CCN(CCN2C(=O)COc3ccccc32)CC1 [Cpd 62, 5-chloro-N-[2-(1H-indol-3-yl)-ethyl]-2-{1-[2-(3-oxo-2,3-dihydro-benzo[1,4]oxazin-4-yl)-ethyl]-piperidin-4-yl}-benzamide]
IC50 [1]: 900 nM

O=C(NCCc1ccccc1Cl)c1ccccc1C1CCN(CCN2C(=O)COc3ccccc32)CC1 [Cpd 8, N-[2-(2-chloro-phenyl)-ethyl]-2-{1-[2-(3-oxo-2,3-dihydro-benzo[1,4]oxazin-4-yl)-ethyl]-piperidin-4-yl}-benzamide]
IC50 [1]: 14000 nM

— patent publication US8759342B2, “Benzo[1,4]oxazin-3-one, benzo[1,4]thiazin-3-one and quinolin-2-one urotensin II receptor antagonists” (Janssen Pharmaceutica NV, priority 2006, dated 2014)
